Measurements reported in patent US20170290774A1, “NEUROKININ-1 RECEPTOR ANTAGONIST COMPOSITION FOR TREATMENT OF DISEASES AND CONDITIONS OF THE RESPIRATORY TRACT” (PLUS VITECH, S.L., priority 2014, published 2017).

Test system: TGFβ1
Test: Immunohistochemistry of TGFβ1 in respiratory tract tissue of sodium hypochlorite aerosol-treated rabbits
Format: in vivo, New Zealand albino rabbits
Text: It is known that the factors TGF-α, TGF-β 1, TGF-β 2, TGF-β 3, SPARC, MMP-3; MMP-7, MMP-9, MMP-11, MMP-13 and MMP-14, TGF-β, NF-kB, EGF, MMP-9, VEGF and TNF-α which are produced by lung cells (pneumocytes, fibroblasts and vascular endothelial cells) and inflammatory cells (macrophages, lymphocytes and polymorphonuclear leukocytes) are involved in the pathophysiology and development of said respiratory tract diseases. […] Herein, 27 New Zealand albino rabbits (New Zealand White Rabbit) with an initial average weight about 3 kg were used in this example. All subjects were administered an aerosol of a solution consisting of a mixture of water and sodium hypochlorite (35 g sodium hypochlorite per liter of water) at a rate of 5 mL of said solution by inhalation three times a day for 7 days (days 1 to 7 of experimentation). Subsequently, from days 3 to 7, a group of 3 rabbits (Group 1) was administered an oral dose of 10 mg/kg body weight per day, another group of 3 rabbits (Group 2) was administered an oral dose of 40 mg/kg body weight per day, a third group (Group 3) was administered an oral dose of 80 mg/kg body weight per day and a fourth group (Group 4) was administered an oral dose of 100 mg/kg body weight per day. […] This mixture was administered as an aerosol by inhalation, also from days 3 to 7, to a group of 3 rabbits (group 5) at a dose of 0.05 mg/kg body weight per day, to another group of three rabbits (Group 6) at a dose of 0.1 mg/kg body weight per day, to another group of three rabbits (Group 7) at a dose of 0.2 mg/kg body weight per day and to another group of three rabbits (Group 8) at a dose of 0.4 mg/kg body weight per day. A placebo consisting only of olive oil was administered from days 3 to 7 to a control group of 3 rabbits (placebo group). In parallel, 3 rabbits were kept under identical conditions but were not administered any treatment nor the aforementioned sodium hypochlorite solution (control group). […] On day 7 of the experiment all animals were euthanized and necropsied. […] Samples were taken at the peripheral level of the lung parenchyma, just below the pleural surface. Tissue samples were also taken from the nasal cavity, pharynx, larynx and bronchi. Immunohistochemistry studies were performed for all samples to evaluate the levels of the markers TGF-α, TGF-β 1, TGF-β 2, TGF-β 3 SPARC, MMP-3; MMP-7, MMP-9, MMP-11, MMP-14, TGF-β, TNF-α and VEGF. In said immunohistochemistry studies, a sample of each sample was dehydrated by treatment with increasing concentrations of ethanol and finally xylene. Subsequently said dried samples were embedded in paraffin, thus creating a block. Said paraffin blocks were cut on a microtome to a thickness of 5 μm, and the resulting sections (slices) were placed on slides suitable for conducting immunohistochemistry techniques. Subsequently, the sections were deparaffinised by immersion in xylene and then rehydrated through immersion in a series of solutions containing decreasing concentrations of ethanol and, finally, water. […] The samples were then allowed to cool to room temperature over 10 minutes. Endogenous peroxidase activity was blocked by treatment with 3% hydrogen peroxide over 30 min at room temperature. […] In order to verify the expression of NK1 receptors, the cell samples were incubated in the presence of anti-NK1 antibodies ([…], Sigma-Aldrich) diluted 1:1000 at 4° C. overnight. After this time they were washed in 0.05M Tris buffer at room temperature. Subsequently, Envision System-HRP (Dako) reagents were added for 30 min at room temperature. Once this time had expired, the samples were again washed with 0.05 M Tris buffer, and immunoreactivity was visualized by light microscopy with a chromogenic solution with 3,3'-diaminobenzidine (DAB+; Dako, USA). In order to differentiate the cell nuclei, these were lightly stained with haematoxylin. Samples that were not incubated with the primary antibody, but wherein this was replaced by a non-immune serum were used as negative controls. […]

C[C@@H](OC1OCCN(Cc2nc(=O)[nH][nH]2)C1c1ccc(F)cc1)c1cc(C(F)(F)F)cc(C(F)(F)F)c1 (stereo in doubt) [Aprepitant, 5-([(2R,3S)-2-((R)-1-[3,5-bis(trifluoromethyl)phenyl]ethoxy)-3-(4-fluorophenyl)morpholino]methyl)-1H-1,2,4-triazol-3(2H)-one]
Percent increase in TGFβ1 with respect to the control group (bronchial tissue, Group 1, oral 10 mg/kg per day): 1,234.56%
Percent increase in TGFβ1 with respect to the control group (bronchial tissue, Group 2, oral 40 mg/kg per day): 984.45%
Percent increase in TGFβ1 with respect to the control group (bronchial tissue, Group 3, oral 80 mg/kg per day): 768.32%
Percent increase in TGFβ1 with respect to the control group (bronchial tissue, Group 4, oral 100 mg/kg per day): 502.23%
% Med G5/C: percent increase in marker TGFβ1 with respect to the control group (bronchial tissue, Group 5): 1,103.34%
% Med G6/C: percent increase in marker TGFβ1 with respect to the control group (bronchial tissue, Group 6): 708.45%
% Med G7/C: percent increase in marker TGFβ1 with respect to the control group (bronchial tissue, Group 7): 302.34%
% Med G8/C: percent increase in marker TGFβ1 with respect to the control group (bronchial tissue, Group 8): 124.37%
Percent increase in TGFβ1 with respect to the control group (laryngeal tissue, Group 1, oral 10 mg/kg per day): 1,567.67%
Percent increase in TGFβ1 with respect to the control group (laryngeal tissue, Group 2, oral 40 mg/kg per day): 1,278.89%
Percent increase in TGFβ1 with respect to the control group (laryngeal tissue, Group 3, oral 80 mg/kg per day): 1,067.78%
Percent increase in TGFβ1 with respect to the control group (laryngeal tissue, Group 4, oral 100 mg/kg per day): 988.78%
Percent increase in TGFβ1 with respect to the control group (laryngeal tissue, Group 5, inhalation 0.05 mg/kg per day): 1,398.78%
Percent increase in TGFβ1 with respect to the control group (laryngeal tissue, Group 6, inhalation 0.1 mg/kg per day): 760.87%
Percent increase in TGFβ1 with respect to the control group (laryngeal tissue, Group 7, inhalation 0.2 mg/kg per day): 320.34%
Percent increase in TGFβ1 with respect to the control group (laryngeal tissue, Group 8, inhalation 0.4 mg/kg per day): 102.23%
Percent increase in TGFβ1 with respect to the control group (lung tissue, Group 1, oral 10 mg/kg per day): 1,277.48%
Percent increase in TGFβ1 with respect to the control group (lung tissue, Group 2, oral 40 mg/kg per day): 990.28%
Percent increase in TGFβ1 with respect to the control group (lung tissue, Group 3, oral 80 mg/kg per day): 858.27%
Percent increase in TGFβ1 with respect to the control group (lung tissue, Group 4, oral 100 mg/kg per day): 759.25%
Percent increase in TGFβ1 with respect to the control group (lung tissue, Group 5, inhalation 0.05 mg/kg per day): 1,166.88%
Percent increase in TGFβ1 with respect to the control group (lung tissue, Group 6, inhalation 0.1 mg/kg per day): 492.89%
Percent increase in TGFβ1 with respect to the control group (lung tissue, Group 7, inhalation 0.2 mg/kg per day): 270.24%
Percent increase in TGFβ1 with respect to the control group (lung tissue, Group 8, inhalation 0.4 mg/kg per day): 123.01%
Percent increase in TGFβ1 with respect to the control group (nasal cavity tissue, Group 1, oral 10 mg/kg per day): 2,191.33%
Percent increase in TGFβ1 with respect to the control group (nasal cavity tissue, Group 2, oral 40 mg/kg per day): 1,562.26%
Percent increase in TGFβ1 with respect to the control group (nasal cavity tissue, Group 3, oral 80 mg/kg per day): 1,491.16%
Percent increase in TGFβ1 with respect to the control group (nasal cavity tissue, Group 4, oral 100 mg/kg per day): 1,373.96%
Percent increase in TGFβ1 with respect to the control group (nasal cavity tissue, Group 5, inhalation 0.05 mg/kg per day): 2,065.52%
Percent increase in TGFβ1 with respect to the control group (nasal cavity tissue, Group 6, inhalation 0.1 mg/kg per day): 745.49%
Percent increase in TGFβ1 with respect to the control group (nasal cavity tissue, Group 7, inhalation 0.2 mg/kg per day): 480.80%
Percent increase in TGFβ1 with respect to the control group (nasal cavity tissue, Group 8, inhalation 0.4 mg/kg per day): 138.39%
Percent increase in TGFβ1 with respect to the control group (pharyngeal tissue, Group 1, oral 10 mg/kg per day): 2,198.45%
Percent increase in TGFβ1 with respect to the control group (pharyngeal tissue, Group 2, oral 40 mg/kg per day): 1,562.45%
Percent increase in TGFβ1 with respect to the control group (pharyngeal tissue, Group 3, oral 80 mg/kg per day): 1,208.45%
Percent increase in TGFβ1 with respect to the control group (pharyngeal tissue, Group 4, oral 100 mg/kg per day): 1,001.31%
Percent increase in TGFβ1 with respect to the control group (pharyngeal tissue, Group 5, inhalation 0.05 mg/kg per day): 1,804.23%
Percent increase in TGFβ1 with respect to the control group (pharyngeal tissue, Group 6, inhalation 0.1 mg/kg per day): 1,220.34%
Percent increase in TGFβ1 with respect to the control group (pharyngeal tissue, Group 7, inhalation 0.2 mg/kg per day): 609.67%
Percent increase in TGFβ1 with respect to the control group (pharyngeal tissue, Group 8, inhalation 0.4 mg/kg per day): 121.89%
